{"source": "patent US7524836B2", "about": "“Nitrooxyderivative steroidal compounds” (Nicox S.A., priority 2001, dated 2009)", "key": {"[1]": {"test": "Test 4: inhibition of radical production from DPPH", "details": "tested substance 10^-4 M (100 μM) in methanol, 30 minutes, absorbance at 517 nm", "experimental": "[drawing 21] • wherein test 4 is the following: it is an analytical determination carried out by adding portions of methanol solutions of the precursor of B or B1 at a 10^−4 M concentration, to a methanol solution of DPPH (2,2-diphenyl-1-picryl hydrazyl-free radical); after having maintained the solution at room temperature away from light for 30 minutes, it is read the absorbance at the wave length of 517 nm of the test solution and of a solution containing only DPPH in the same amount as in the test solution; and then the inhibition induced by the precursor towards radical production by DPPH is calculated as a percentage by means of the following formula: (1−AS/AC)×100 wherein AS and AC are respectively the absorbance values of the solution containing the test compound+DPPH and that of the solution containing only DPPH; the acceptance criterium of the compounds according to this test is the following: test 4 is met by B or B1 precursor compounds if the inhibition percentage as above defined is higher than or equal to 50%;\nTest 4 is a […] test which affords to establish whether the orecursors of B or B1 inhibit the production of radicals from DPPH (2,2-diphenyl-1-picryl-hydrazyl) (M. S. Nenseter et Al., Atheroscler. Thromb. 15, 1338-1344, 1995). 100 μM solutions in methanol of the tested substances are prepared, and an aliquot of each of said solutions is added to a DPPH solution in methanol […]. After having stored the solutions at room temperature away from light for 30 minutes, their absorbances are read at the wave length of 517 nm, together with that of the corresponding DPPH solution at the same concentration. The absorbance decrease with respect to that of the solution of DPPH at the same concentration of the test solutions is determined. The effectiveness of the tested compound in inhibiting formation of radicals by DPPH is expressed by the following formula: (1−AS/AC)×100 wherein AS and AC are respectively the absorbance values of the solution containing the test compound together with DPPH and of the solution containing only DPPH; the compounds precursor of B or B1 meet test 4 when the inhibition percentage of radical production from DPPH, expressed as a percentage according to the above equation, is higher than or equal co 50% at the indicated concentration (10^−4 M).\nThe method is based on a colorimetric test in which DPPH (2,2-diphenyl-1-picryl-hydrazyl) is used as the compound-forming radicals (M. S. Nenseter et Al., Atheroscler. Thromb. 15, 1338-1344, 1995).\nSolutions in methanol of the tested substances at a final concentration 100 μM are initially prepared. 0.1 ml of each of these solutions are added to aliquots of 1 ml of a methanol solution […] of DPPH and then the final volume is brought to 1.5 ml. After having stored the solutions at room temperature away from light for 30 minutes, the absorbance at the wave length of […] is read. It is determined the absorbance decrease with respect to the absorbance of a solution containing the same concentration of DPPH.\nThe efficacy of the test compound to inhibit the production of radicals, otherwise said antiradical activity, is expressed by the following formula: (1−AS/AC)×100 wherein AS and AC are, respectively, the absorbance values of the solution containing the test compound together+DPPH and of the solution containing only DPPH. […]"}, "[2]": {"system": "rats treated or not treated with L-NAME", "parameters": "species or system rat (Long Evans)", "details": "rat, in vivo, ip; for GPT var. %: 100 mg/kg", "experimental": "In those groups of rats treated, respectively, with ursodesoxycholic acid and chenodeoxycholic acid and thereof corresponding compounds according to the present invention, GPT is determined.\nAt the end of the four weeks access to water is prevented and after 24 hours the animals are sacrificed.\n1st group receiving L-NAME (group d-comparative) administered at the same time with 100 mg/Kg (0.25 mmoles/Kg) of ursodesoxycholic acid+49.5 mg/Kg (0.25 mmoles/Kg) of ferulic acid in the same above carrier, • c. 2nd group receiving L-NAME (group e) administered with 175 mg/Kg (0.25 mmoles/Kg) of the ursodesoxycholic derivative according to the invention (ref. ex. 1) in the same above carrier."}, "[3]": {"system": "rats treated or not treated with L-NAME", "details": "rat, in vivo, ip"}, "[4]": {"test": "Test 5: inhibition of radical production from Fe^II (desoxyribose degradation)", "details": "10^-4 M methanolic solution, 37° C. for one hour, absorbance at 532 nm", "experimental": "[…]\nTest 5 is a […] test wherein 0.1 ml aliquots of 10^−4 M methanolic solutions of the tested products are added to test tubes containing a solution formed by 0.2 ml of 2 mM desoxyribose, 0.4 ml of phosphate buffer pH 7.4 100 mM and 0.1 ml of 1 mM Fe^II(NH4)2(SO4)2 in 2 mM HCl. […] A pink coloration is developed the intensity of which is proportional to the quantity of desoxyribose undergone to radical oxidative degradation. The solutions are cooled at room temperature and their absorbances are read at 532 nm against the blank. The inhibition induced by the precursor of B or B1 or C=-TC-Y—H in comparison with the radical production by Fe^II is determined by means of the following formula: (1−AS/AC)×100 wherein AS and AC are respectively the absorbance values of the solution containing the tested compound+the iron salt and that of the solution containing only the iron salt, the compound meets test 5 when the inhibition percentage of radical production as above defined from the precursor of B or B1 or C=-TC-Y—H is higher than or equal to 50%. […]"}}, "note": "Read-outs that look alike come from different tables or passages of the source."}
{"smiles": "O=C(O)c1cc(O)ccc1O", "note": "[Gentisic acid]", "values": [{"measurement": "% inhibition radical production from DPPH", "setting": "[1]; 100 µM", "value": 80, "unit": "%"}]}
{"smiles": "COc1cc(/C=C/C(=O)OCCCCO[N+](=O)[O-])ccc1OC(=O)CC[C@@H](C)[C@H]1CCC2C3C(CC[C@@]21C)[C@@]1(C)CC[C@@H](O)C[C@H]1C[C@H]3O", "note": "(stereo partly drawn) [Example 2, 3-[4-[(3α,5β,7α)-3,7-dihydroxycolan-24-oiloxy]-3-methoxyphenyl]-2-propenoic acid 4-nitroxybutyl ester]", "values": [{"measurement": "GPT var. %", "setting": "[2]", "value": 105, "unit": "%"}]}
{"smiles": "C[C@@H]1C[C@H]2[C@@H]3CCC4=CC(=O)C=C[C@]4(C)[C@@]3(F)[C@@H](O)C[C@]2(C)[C@@]1(O)C(=O)CO", "note": "[dexamethasone]", "values": [{"measurement": "Blood pressure variation %", "setting": "[3]; 5 mg/kg", "value": 125, "unit": "%"}]}
{"smiles": "C[C@H](CCC(=O)O)[C@H]1CC[C@H]2[C@@H]3[C@@H](O)C[C@@H]4C[C@H](O)CC[C@]4(C)[C@H]3CC[C@]12C", "note": "[ursodesoxycholic acid]", "values": [{"measurement": "GPT var. %", "setting": "[2]", "value": 130, "unit": "%"}]}
{"smiles": "CC(=O)N[C@@H](CSC(=O)CCCO[N+](=O)[O-])C(=O)OCC(=O)[C@@]1(O)CC[C@H]2[C@@H]3CCC4=CC(=O)C=C[C@]4(C)[C@H]3[C@@H](O)C[C@@]21C", "note": "[Example 3, (11β)-11,17-dihydroxy-21[N-acetyl-S-(4-nitroxybutyroyl)cysteinyloxy]-pregn-1,4-diene-3,20-dione]", "values": [{"measurement": "Blood pressure variation %", "setting": "[3]; 10 mg/kg", "value": 102, "unit": "%"}]}
{"smiles": "N[C@@H](CS)C(=O)O", "note": "[Cysteine]", "values": [{"measurement": "% inhibition radical production from DPPH", "setting": "[1]; 100 µM", "value": 100, "unit": "%"}]}
{"smiles": "CC(=O)N[C@@H](CS)C(=O)O", "note": "[N-acetylcysteine]", "values": [{"measurement": "% inhibition radical production from DPPH", "setting": "[1]", "value": 100, "unit": "%"}]}
{"smiles": "CC(=O)N[C@@H](CSC(=O)CCCO[N+](=O)[O-])C(=O)OCC(=O)[C@@]1(O)CC[C@H]2[C@@H]3CCC4=CC(=O)CC[C@]4(C)[C@H]3[C@@H](O)C[C@@]21C", "note": "[Example 4, (11β)-11,17-Dihydroxy-21[N-acetyl-S-(4-nitroxybutyroyl)cysteinyloxy]-pregn-4-ene-3,20-dione]", "values": [{"measurement": "Blood pressure variation %", "setting": "[3]; 10 mg/kg", "value": 98, "unit": "%"}]}
{"smiles": "CC(=O)N[C@@H](CSC(=O)CCCO[N+](=O)[O-])C(=O)OCC(=O)[C@@]1(O)[C@H](C)C[C@H]2[C@@H]3CCC4=CC(=O)C=C[C@]4(C)[C@@]3(F)[C@@H](O)C[C@@]21C", "note": "[Example 5, (11β,16α)-9-Fluoro-11,17-dihydroxy-21[N-acetyl-S-(4-nitroxybutyroyl)cysteinyloxy]-16-methylpregn-1,4-diene-3,20-dione]", "values": [{"measurement": "Blood pressure variation %", "setting": "[3]; 5 mg/kg", "value": 103, "unit": "%"}, {"measurement": "Blood pressure variation %", "setting": "[3]; 42.5 mg/kg", "value": 125, "unit": "%"}]}
{"smiles": "C[C@]12C=CC(=O)C=C1CC[C@@H]1[C@@H]2[C@@H](O)C[C@@]2(C)[C@H]1CC[C@]2(O)C(=O)CO", "note": "[prednisolone]", "values": [{"measurement": "Blood pressure variation %", "setting": "[3]; 10 mg/kg", "value": 119, "unit": "%"}]}
{"smiles": "O=C(O)C1CSCN1", "note": "(stereo not drawn) [4-thiazolidin carboxylic acid]", "values": [{"measurement": "% inhibition radical production from DPPH", "setting": "[1]; 100 µM", "value": "does not inhibit"}, {"measurement": "% Radical Inhibition from Fe^II", "setting": "[4]", "value": 100, "unit": "%"}]}
{"smiles": "COc1cc(/C=C/C(=O)O)ccc1O", "note": "[Ferulic acid]", "values": [{"measurement": "% inhibition radical production from DPPH", "setting": "[1]; 100 µM", "value": 100, "unit": "%"}]}
{"smiles": "COc1cc(/C=C/C(=O)OCCCCO[N+](=O)[O-])ccc1OC(=O)CC[C@@H](C)[C@H]1CCC2C3C(CC[C@@]21C)[C@@]1(C)CC[C@@H](O)C[C@H]1C[C@@H]3O", "note": "(stereo partly drawn) [Example 1, 3-[4-[(3α,5β,7β)-3,7-dihydroxycolan-24-oiloxy]-3-methoxyphenyl]-2-propenoic acid 4-nitroxybutyl ester]", "values": [{"measurement": "GPT var. %", "setting": "[2]", "value": 103, "unit": "%"}, {"measurement": "GPT variation %", "setting": "[2]; 175 mg/kg", "value": 123, "unit": "%"}]}
{"smiles": "C[C@]12CCC(=O)C=C1CC[C@@H]1[C@@H]2[C@@H](O)C[C@@]2(C)[C@H]1CC[C@]2(O)C(=O)CO", "note": "[hydrocortisone]", "values": [{"measurement": "Blood pressure variation %", "setting": "[3]; 10 mg/kg", "value": 115, "unit": "%"}]}
{"smiles": "C[C@H](CCC(=O)O)[C@H]1CC[C@H]2[C@@H]3[C@H](O)C[C@@H]4C[C@H](O)CC[C@]4(C)[C@H]3CC[C@]12C", "note": "[chenodeoxycholic acid]", "values": [{"measurement": "GPT var. %", "setting": "[2]", "value": 150, "unit": "%"}]}
